Data: ChEMBL document CHEMBL1201862, “PubChem BioAssay data set” (2004)
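Cells were grown in 96-well plates and exposed to each compound for 48 hours at five concentrations; endpoints were interpolated linearly between bracketing concentrations, or set to the highest concentration if not reached. Abbreviation: GI50, concentration required for 50% inhibition of growth.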 Calls of active or inactive are those of the source. No stated cut-off is given here; in the data, active = GI50 up to about 1.1 µM and inactive = higher.

Legend:
Assay in all cases: growth of human tumour cells (NCI), 48 h
786-0 = tested on: 786-0
A549 = tested on: A549
BT-549 = tested on: BT-549
DU-145 = tested on: DU-145
HOP-62 = tested on: HOP-62
HOP-92 = tested on: HOP-92
HT-29 = tested on: HT-29
Hs-578T = tested on: Hs-578T
LOX IMVI = tested on: LOX IMVI
NCI-H23 = tested on: NCI-H23
NCI-H460 = tested on: NCI-H460
OVCAR-3 = tested on: OVCAR-3
OVCAR-8 = tested on: OVCAR-8
RXF 393 = tested on: RXF 393
SF-268 = tested on: SF-268
SK-MEL-28 = tested on: SK-MEL-28
SK-MEL-2 = tested on: SK-MEL-2
SK-MEL-5 = tested on: SK-MEL-5
SN12C = tested on: SN12C
SNB-75 = tested on: SNB-75

Structure (SMILES)	GI50 (786-0)	GI50 (A549)	GI50 (BT-549)	GI50 (DU-145)	GI50 (HOP-62)	GI50 (HOP-92)	GI50 (HT-29)	GI50 (Hs-578T)	GI50 (LOX IMVI)	GI50 (NCI-H23)	GI50 (NCI-H460)	GI50 (OVCAR-3)	GI50 (OVCAR-8)	GI50 (RXF 393)	GI50 (SF-268)	GI50 (SK-MEL-28)	GI50 (SK-MEL-2)	GI50 (SK-MEL-5)	GI50 (SN12C)	GI50 (SNB-75)
COc1ccc(C(C#N)NC23CC4CC(CC(C4)C2)C3)cc1OC (stereo not given)	> 100 µM (inactive)	> 100 µM (inactive)	> 100 µM (inactive)	> 100 µM (inactive)	> 100 µM (inactive)	96.8 µM (inactive)	> 100 µM (inactive)	> 100 µM (inactive)	> 100 µM (inactive)	> 100 µM (inactive)	> 100 µM (inactive)	> 100 µM (inactive)	> 100 µM (inactive)	> 100 µM (inactive)	> 100 µM (inactive)	> 100 µM (inactive)	> 100 µM (inactive)	> 100 µM (inactive)	> 100 µM (inactive)	> 100 µM (inactive)
CN1CC[N+](C)=C1c1ccccc1	> 100 µM (inactive)	> 100 µM (inactive)	> 100 µM (inactive)	> 100 µM (inactive)	> 100 µM (inactive)	> 100 µM (inactive)	> 100 µM (inactive)	> 100 µM (inactive)	> 100 µM (inactive)	> 100 µM (inactive)	> 100 µM (inactive)	> 100 µM (inactive)	> 100 µM (inactive)	> 100 µM (inactive)	> 100 µM (inactive)	> 100 µM (inactive)	> 100 µM (inactive)	> 100 µM (inactive)	> 100 µM (inactive)	> 100 µM (inactive)
O=c1cc(O)c2c(O)cc(O)cc2o1	> 100 µM (inactive)	> 100 µM (inactive)	> 100 µM (inactive)	> 100 µM (inactive)	> 100 µM (inactive)	> 100 µM (inactive)	> 100 µM (inactive)	> 100 µM (inactive)	> 100 µM (inactive)	> 100 µM (inactive)	> 100 µM (inactive)	> 100 µM (inactive)	> 100 µM (inactive)	> 100 µM (inactive)	> 100 µM (inactive)	> 100 µM (inactive)	> 100 µM (inactive)	> 100 µM (inactive)	> 100 µM (inactive)	> 100 µM (inactive)
C/C(=N\N)C(CN(C)C)C(c1ccccc1)c1c(O)c2ccccc2oc1=O (stereo not given)	> 100 µM (inactive)	> 100 µM (inactive)	> 100 µM (inactive)	> 100 µM (inactive)	> 100 µM (inactive)	25.2 µM (inactive)	> 100 µM (inactive)	> 100 µM (inactive)	> 94.4 µM (inactive)	> 100 µM (inactive)	> 100 µM (inactive)	> 100 µM (inactive)	> 100 µM (inactive)	> 55.6 µM (inactive)	> 100 µM (inactive)	> 100 µM (inactive)	> 100 µM (inactive)	> 100 µM (inactive)	> 100 µM (inactive)	> 42.4 µM (inactive)
CC1=C(C)C(=O)C(C2=C(C3=CC(=O)C(C)=C(C)C3=O)C(=O)c3ccccc3C2=O)=CC1=O	1.88 µM (inactive)	5.21 µM (inactive)	2.57 µM (inactive)	2.95 µM (inactive)	14.7 µM (inactive)	2.55 µM (inactive)	2.2 µM (inactive)	5.93 µM (inactive)	2.41 µM (inactive)	2.79 µM (inactive)	14.2 µM (inactive)	2.68 µM (inactive)	2.38 µM (inactive)	1.71 µM (inactive)	3.26 µM (inactive)	2.3 µM (inactive)	2.32 µM (inactive)	4.53 µM (inactive)	1.85 µM (inactive)	9.79 µM (inactive)
C#C[C@]1(O)CC[C@H]2[C@@H]3CCC4=C/C(=N/OC(=O)c5cccc6c(=O)c7ccccc7[nH]c56)CC[C@@H]4[C@H]3CC[C@@]21C	> 100 µM (inactive)	64.3 µM (inactive)	37.2 µM (inactive)	61.9 µM (inactive)	> 100 µM (inactive)	> 100 µM (inactive)	52.5 µM (inactive)	54.1 µM (inactive)	34 µM (inactive)	40.6 µM (inactive)	37.2 µM (inactive)	64.1 µM (inactive)	42.1 µM (inactive)	> 100 µM (inactive)	80 µM (inactive)	62.4 µM (inactive)	57.4 µM (inactive)	20.2 µM (inactive)	> 100 µM (inactive)	97.7 µM (inactive)
CS[C@]12C(=O)C[C@@]3(C)[C@@H](CC[C@]3(O)C(=O)CO)[C@@H]1CCC1=CC(=O)CC[C@@]12C	> 100 µM (inactive)	> 100 µM (inactive)	68.2 µM (inactive)	> 100 µM (inactive)	> 100 µM (inactive)	> 100 µM (inactive)	88.5 µM (inactive)	> 100 µM (inactive)	> 100 µM (inactive)	> 100 µM (inactive)	> 100 µM (inactive)	> 100 µM (inactive)	> 100 µM (inactive)	> 100 µM (inactive)	> 100 µM (inactive)	> 100 µM (inactive)	> 100 µM (inactive)	> 100 µM (inactive)	> 100 µM (inactive)	> 100 µM (inactive)
O=C(O)c1ccccc1.[Ag]	17.3 µM (inactive)	6.81 µM (inactive)	27.2 µM (inactive)	17.5 µM (inactive)	21.3 µM (inactive)	21.7 µM (inactive)	20 µM (inactive)	28.2 µM (inactive)	11.1 µM (inactive)	22.6 µM (inactive)	11.1 µM (inactive)	12.9 µM (inactive)	28.1 µM (inactive)	18.2 µM (inactive)	21.8 µM (inactive)	16.9 µM (inactive)	14.4 µM (inactive)	4.73 µM (inactive)	23 µM (inactive)	3.36 µM (inactive)
Nc1ccn(CC(O)c2cc3ccccc3[nH]2)c(=O)n1 (stereo not given)	> 100 µM (inactive)	> 100 µM (inactive)	> 100 µM (inactive)	> 100 µM (inactive)	> 100 µM (inactive)	> 100 µM (inactive)	> 100 µM (inactive)	> 100 µM (inactive)	> 100 µM (inactive)	> 100 µM (inactive)	> 100 µM (inactive)	> 100 µM (inactive)	> 100 µM (inactive)	> 100 µM (inactive)	> 100 µM (inactive)	> 100 µM (inactive)	> 100 µM (inactive)	> 100 µM (inactive)	> 100 µM (inactive)	> 100 µM (inactive)
O=c1cc(-c2ccccc2)oc2c1ccc1nc3ccccc3c(O)c12	42 µM (inactive)	45.1 µM (inactive)	33.5 µM (inactive)	61.2 µM (inactive)	88.1 µM (inactive)	> 100 µM (inactive)	> 100 µM (inactive)	59.4 µM (inactive)	12.5 µM (inactive)	89.1 µM (inactive)	14.7 µM (inactive)	79.1 µM (inactive)	80.5 µM (inactive)	31.6 µM (inactive)	39.8 µM (inactive)	> 100 µM (inactive)	> 100 µM (inactive)	47.6 µM (inactive)	66.1 µM (inactive)	34.9 µM (inactive)
N=c1c2c(=S)n(-c3ccccc3)c(=S)n(-c3ccccc3)c2nc(SCCN2CCCC2)n1-c1ccccc1	0.622 µM (active)	2.39 µM (inactive)	1.92 µM (inactive)	1.76 µM (inactive)	3.4 µM (inactive)	1.71 µM (inactive)	1.81 µM (inactive)	3.9 µM (inactive)	1.63 µM (inactive)	2.9 µM (inactive)	1.72 µM (inactive)	1.68 µM (inactive)	2.01 µM (inactive)	1.41 µM (inactive)	2.7 µM (inactive)	3.69 µM (inactive)	5.94 µM (inactive)	3.27 µM (inactive)	1.86 µM (inactive)	2.66 µM (inactive)
NN	204 µM (inactive)	145 µM (inactive)	1080 µM (inactive)	793 µM (inactive)	259 µM (inactive)	525 µM (inactive)	234 µM (inactive)	809 µM (inactive)	86.3 µM (inactive)	359 µM (inactive)	188 µM (inactive)	431 µM (inactive)	406 µM (inactive)	453 µM (inactive)	561 µM (inactive)	585 µM (inactive)	607 µM (inactive)	594 µM (inactive)	403 µM (inactive)	851 µM (inactive)
C=CCNC(=S)N/N=C1\C(=O)N(CN2CCOCC2)c2ccc([N+](=O)[O-])cc21	15.6 µM (inactive)	10.4 µM (inactive)	15.1 µM (inactive)	18.7 µM (inactive)	20.6 µM (inactive)	13.3 µM (inactive)	23.2 µM (inactive)	> 100 µM (inactive)	32.3 µM (inactive)	44.9 µM (inactive)	4.16 µM (inactive)	24.3 µM (inactive)	12.7 µM (inactive)	> 100 µM (inactive)	58.6 µM (inactive)	> 100 µM (inactive)	> 100 µM (inactive)	9.73 µM (inactive)	16.4 µM (inactive)	24.3 µM (inactive)
N=C1OC(c2c[nH]c3ccc(OCc4ccccc4)cc23)C(O)=C1O (stereo not given)	> 100 µM (inactive)	> 100 µM (inactive)	> 100 µM (inactive)	> 100 µM (inactive)	> 100 µM (inactive)	> 100 µM (inactive)	> 100 µM (inactive)	> 100 µM (inactive)	> 100 µM (inactive)	> 100 µM (inactive)	> 100 µM (inactive)	> 100 µM (inactive)	> 100 µM (inactive)	> 100 µM (inactive)	> 100 µM (inactive)	> 100 µM (inactive)	> 100 µM (inactive)	> 100 µM (inactive)	> 100 µM (inactive)	29.2 µM (inactive)
